14 compounds from patent US10392385B2, “N-((1-phenyl-9H-pyrido[3,4-b]indol-3-yl)methyl)cinnamamides as potential anticancer agents and preparation thereof” (Council of Scientific & Industrial Research, priority 2016, dated 2019) can be followed below.

One data set has as its system HeLa (cervical cancer). Nature of the data set: MTT cytotoxicity assay, HeLa. It is filed as cell-based. As to conditions: Homo sapiens, of drug treatment (footnote), average of three experiments. The source says:
(§1) The N-((1-phenyl-9H-pyrido[3,4-b]indol-3-yl)methyl)cinnamamides (1a-h, 2a-h and 3a-h) have been tested against five human cancer cell lines such as A549 (lung cancer), MCF-7 (breast cancer), B16 (melanoma), HeLa (cervical cancer) and NIH3T3 (mouse embryonic fibroblast cancer). All the cancer cell lines (HeLa, A549, MCF-7 and B16) were procured from National Centre for Cell Sciences (NCCS, Pune, India) and NIH 3T3 cell line was obtained from American Type Culture Collection (Rockville, Md., USA). Stock cells were cultured in DMEM supplemented with 10% Fetal Bovine Serum (FBS), in an humidified atmosphere of 5% CO2 at 37° C. until they are 80% confluent. To study the cytotoxicity of the compounds, after 80% confluence, cells were trypsinized with 0.1% trypsin-EDTA and harvested by centrifugation at 500×g. Serial dilutions of cells were made from 1×10^6 to 1×10^3 cells per mL The cells were seeded in triplicate in a 96 well plate. […]. […] The cell viability was determined by measuring the ability of cells to transform MTT to a purple coloured formazan dye. The absorbance of samples at 570 nm was measured using a UV-Visible spectrophotometer. Percentage of viable cells was calculated by using the formula given below.
(§2) Where the OD570 (sample) corresponds to absorbance obtained from the wells treated with compound and OD570 (control) represents the absorbance from the wells in which no compound was added. For these compounds results are expressed as half maximal inhibitory concentration (IC50) values and the anticancer activity data of 1a-h, 2a-h and 3a-h are shown in Table 2.

The subject of the next data set is B16 (melanoma). Briefly: MTT cytotoxicity assay, B16. Type of data set: cell-based. As to conditions: 48 h of drug treatment (footnote), average of three experiments.
From the text: as §1, §2

The test system of the next data set is MCF-7 (breast cancer). Briefly: MTT cytotoxicity assay, MCF-7. It is filed as cell-based. Conditions: Homo sapiens, MCF7, average of three experiments.
From the text: as §1, §2

Data set [1] deals with NIH3T3 (mouse embryonic fibroblast cell line). Nature of the data set: MTT cytotoxicity assay, NIH3T3. Type of data set: cell-based. As to conditions: 48 h of drug treatment (footnote), average of three experiments.
From the text: as §1, §2

The test system of another data set is A549 (lung cancer). Nature of the data set: MTT cytotoxicity assay, A549. As to conditions: Homo sapiens, 48 h of drug treatment (footnote), average of three experiments. Type of data set: cell-based.
From the text: as §1
Where the OD570 (sample) corresponds to absorbance obtained from the wells treated with compound and OD570 (control) represents the absorbance from the wells in which no compound was added.

Regarding `COc1cc(-c2nc(CNC(=O)/C=C/c3ccc(Cl)cc3)cc3c2[nH]c2ccccc23)cc(OC)c1OC` [Compound 2f, (E)-3-(4-chlorophenyl)-N-((1-(3,4,5-trimethoxyphenyl)-9H-pyrido[3,4-b]indol-3-yl)methyl)acrylamide], the melting point was 148 to 150 °C. The IC50 with HeLa (cervical cancer) stood at 26.8 ± 0.4 nM. The compound also returned an IC50 in the data set with B16 (melanoma) of 18.7 ± 1.1 nM. In the data set with MCF-7 (breast cancer), half-maximal inhibition (IC50) required 17.5 ± 0.9 nM. Besides, in data set [1], half-maximal inhibition (IC50) was put at 35.6 ± 2.1 nM. The compound also displayed an IC50 with A549 (lung cancer) of 18.9 ± 1.7 nM.
`COc1ccc(-c2nc(CNC(=O)/C=C/c3ccc(O)c(OC)c3)cc3c2[nH]c2ccccc23)cc1` [Compound 3g, (E)-3-(4-hydroxy-3-methoxyphenyl)-N-((1-(4-methoxyphenyl)-9H-pyrido[3,4-b]indol-3-yl)methyl)acrylamide] showed a melting point of 215 to 220 °C. The same compound had an IC50 in the data set on HeLa (cervical cancer) of 24.87 ± 0.2 nM. The compound further showed an IC50 in the data set with B16 (melanoma) of 19.8 ± 0.5 nM. It took 17.2 ± 0.5 nM to reach half-maximal inhibition in the data set with MCF-7 (breast cancer) (IC50). In data set [1], the IC50 was found to be 39.9 ± 1.6 nM. The IC50 with A549 (lung cancer) was found to be 21.2 ± 1.5 nM.
Compound `COc1ccc(-c2nc(CNC(=O)/C=C/c3cc(OC)c(OC)c(OC)c3)cc3c2[nH]c2ccccc23)cc1` [Compound 3a, (E)-N-((1-(4-methoxyphenyl)-9H-pyrido[3,4-b]indol-3-yl)methyl)-3-(3,4,5-trimethoxyphenyl)acrylamide] registered a melting point of 148 to 150 °C. In the data set with HeLa (cervical cancer), the IC50 turned out to be 22.89 ± 0.2 nM. For the same compound, the IC50 in the data set with B16 (melanoma) worked out at 17.4 ± 0.4 nM. Further, inhibition with MCF-7 (breast cancer) was half-maximal at 13.4 nM (IC50). In addition, half-maximal inhibition in data set [1] (IC50) required 39.3 ± 1.7 nM. Further, it took 19.7 ± 0.6 nM to reach half-maximal inhibition with A549 (lung cancer) (IC50).
As to `COc1cc(-c2nc(CNC(=O)/C=C/c3cc(F)cc(F)c3)cc3c2[nH]c2ccccc23)cc(OC)c1OC` [Compound 2d, (E)-3-(3,5-difluorophenyl)-N-((1-(3,4,5-trimethoxyphenyl)-9H-pyrido[3,4-b]indol-3-yl)methyl)acrylamide], the melting point was in the range of 228 to 230 °C. In the data set with HeLa (cervical cancer), this compound yielded a half-inhibitory concentration (IC50) of 23.8 ± 0.3 nM. The IC50 in the data set on B16 (melanoma) stood at 24.1 ± 0.7 nM. In addition, the IC50 with MCF-7 (breast cancer) was 19.6 ± 1.1 nM. In data set [1], this compound returned an IC50 of 36.3 ± 1.7 nM. This compound also yielded an IC50 with A549 (lung cancer) of 21.6 ± 1.2 nM.
`COc1ccc(-c2nc(CNC(=O)/C=C/c3cc(F)cc(F)c3)cc3c2[nH]c2ccccc23)cc1` [Compound 3d, (E)-3-(3,5-difluorophenyl)-N-((1-(4-methoxyphenyl)-9H-pyrido[3,4-b]indol-3-yl)methyl)acrylamide] came in with a melting point of 230 to 232 °C. In addition, the IC50 with HeLa (cervical cancer) was 24.6 ± 0.4 nM. Further, the midpoint of inhibition in the data set on B16 (melanoma), the IC50, lay at 23.87 ± 0.2 nM. Moreover, the midpoint of inhibition with MCF-7 (breast cancer), the IC50, lay at 17.2 ± 1.2 nM. The compound also returned an IC50 in data set [1] of 37.5 ± 1.3 nM. Moreover, the IC50 with A549 (lung cancer) is 20 ± 1.1 nM.
`COc1ccc(-c2nc(CNC(=O)/C=C/c3ccc(Cl)c(Cl)c3)cc3c2[nH]c2ccccc23)cc1` [Compound 3b, (E)-3-(3,4-dichlorophenyl)-N-((1-(4-methoxyphenyl)-9H-pyrido[3,4-b]indol-3-yl)methyl)acrylamide] displayed a melting point of 188 to 190 °C. The compound further had an IC50 in the data set on HeLa (cervical cancer) of 21.6 ± 0.4 nM. In the data set with B16 (melanoma), this compound registered an IC50 of 23 ± 0.5 nM. Besides, it took 16.4 ± 0.5 nM to reach half-maximal inhibition with MCF-7 (breast cancer) (IC50). Further, the midpoint of inhibition in data set [1], the IC50, lay at 37.5 ± 1.4 nM. Besides, 18.4 ± 0.7 nM corresponded to half-maximal inhibition with A549 (lung cancer) (IC50).
With `COc1cc(/C=C/C(=O)NCc2cc3c([nH]c4ccccc43)c(-c3cc(OC)c(OC)c(OC)c3)n2)cc(OC)c1OC` [Compound 2a, (E)-3-(3,4,5-trimethoxyphenyl)-N-((1-(3,4,5-trimethoxyphenyl)-9H-pyrido[3,4-b]indol-3-yl)methyl)acrylamide], the IC50 with HeLa (cervical cancer) is 23.5 ± 0.3 nM; in the data set on B16 (melanoma) it was 17.2 ± 0.4 nM; with MCF-7 (breast cancer), 16.5 ± 1.1 nM; in data set [1] it was 38.9 ± 2.5 nM; with A549 (lung cancer) it was 21.3 ± 0.9 nM.
Compound `COc1cc(-c2nc(CNC(=O)/C=C/c3ccc(F)cc3)cc3c2[nH]c2ccccc23)cc(OC)c1OC` [Compound 2c, (E)-3-(4-fluorophenyl)-N-((1-(3,4,5-trimethoxyphenyl)-9H-pyrido[3,4-b]indol-3-yl)methyl)acrylamide] had a melting point of 214 to 218 °C. Moreover, in the data set with HeLa (cervical cancer), the IC50 was 20 ± 0.5 nM. This compound had an IC50 with B16 (melanoma) of 17.2 ± 0.3 nM. Further, the IC50 in the data set on MCF-7 (breast cancer) amounted to 16.4 ± 0.8 nM. The compound also registered an IC50 in data set [1] of 43 ± 1.1 nM. In the data set on A549 (lung cancer), the IC50 stood at 18.7 ± 0.7 nM.
On to `COc1ccc(OC)c(/C=C/C(=O)NCc2cc3c([nH]c4ccccc43)c(-c3cccc(F)c3)n2)c1` [Compound 1e, (E)-3-(2,5-dimethoxyphenyl)-N-((1-(3-fluorophenyl)-9H-pyrido[3,4-b]indol-3-yl)methyl)acrylamide], for which the melting point was in the range of 228 to 230 °C. This compound also displayed an IC50 with HeLa (cervical cancer) of 21.87 ± 0.2 nM. Further, in the data set on B16 (melanoma), inhibition was half-maximal at 19.9 ± 0.7 nM (IC50). In the data set on MCF-7 (breast cancer), this compound displayed an IC50 of 17.5 ± 0.3 nM. For the same compound, in data set [1], the IC50 amounted to 39.6 ± 1.8 nM. This compound also returned an IC50 in the data set with A549 (lung cancer) of 22.2 ± 1.1 nM.
Compound `COc1ccc(OC)c(/C=C/C(=O)NCc2cc3c([nH]c4ccccc43)c(-c3cc(OC)c(OC)c(OC)c3)n2)c1` [Compound 2e, (E)-3-(2,5-dimethoxyphenyl)-N-((1-(3,4,5-trimethoxyphenyl)-9H-pyrido[3,4-b]indol-3-yl)methyl)acrylamide] returned a melting point of 148 to 150 °C. Further, half-maximal inhibition in the data set on HeLa (cervical cancer) (IC50) was put at 25.09 ± 0.2 nM. This compound gave an IC50 in the data set with B16 (melanoma) of 19.2 ± 1.4 nM. The IC50 in the data set on MCF-7 (breast cancer) was 17.2 ± 0.6 nM. In data set [1], the IC50 was 39 ± 1.9 nM. In the data set on A549 (lung cancer), it took 18.8 ± 1.4 nM to reach half-maximal inhibition (IC50).
As to `COc1ccc(-c2nc(CNC(=O)/C=C/c3ccc(Cl)cc3)cc3c2[nH]c2ccccc23)cc1` [Compound 3f, (E)-3-(4-chlorophenyl)-N-((1-(4-methoxyphenyl)-9H-pyrido[3,4-b]indol-3-yl)methyl)acrylamide], the IC50 in the data set on HeLa (cervical cancer) was 21.6 ± 0.6 nM; in the data set with B16 (melanoma) it was 16.6 ± 0.5 nM; with MCF-7 (breast cancer) it was 14.1 nM; in data set [1], 38.3 ± 1.3 nM; with A549 (lung cancer), 18.9 ± 1.1 nM.
For the compound `O=C(/C=C/c1cc(F)cc(F)c1)NCc1cc2c([nH]c3ccccc32)c(-c2cccc(F)c2)n1` [Compound 1d, (E)-3-(3,5-difluorophenyl)-N-((1-(3-fluorophenyl)-9H-pyrido[3,4-b]indol-3-yl)methyl)acrylamide], the melting point was 215 to 220 °C. The IC50 with HeLa (cervical cancer) came to 23.6 ± 0.5 nM. In the data set on B16 (melanoma), this compound yielded an IC50 of 18.2 ± 0.3 nM. In the data set on MCF-7 (breast cancer), this compound showed an IC50 of 16.5 ± 0.6 nM. Further, in data set [1], 36 ± 2.3 nM corresponded to half-maximal inhibition (IC50). The compound further showed an IC50 with A549 (lung cancer) of 21 ± 1.2 nM.
For the compound `COc1cc(-c2nc(CNC(=O)/C=C/c3ccc(Cl)c(Cl)c3)cc3c2[nH]c2ccccc23)cc(OC)c1OC` [Compound 2b, (E)-3-(3,4-dichlorophenyl)-N-((1-(3,4,5-trimethoxyphenyl)-9H-pyrido[3,4-b]indol-3-yl)methyl)acrylamide], the IC50 in the data set on HeLa (cervical cancer) is 25.87 ± 0.2 nM; in the data set with B16 (melanoma), 16.9 ± 0.7 nM; with MCF-7 (breast cancer), 17.5 ± 1.4 nM; in data set [1] it was 39.2 ± 1.9 nM; with A549 (lung cancer), 20.4 ± 0.7 nM.
For `COc1ccc(-c2nc(CNC(=O)/C=C/c3cccc(O)c3)cc3c2[nH]c2ccccc23)cc1` [Compound 3h, (E)-3-(3-hydroxyphenyl)-N-((1-(4-methoxyphenyl)-9H-pyrido[3,4-b]indol-3-yl)methyl)acrylamide], in that order: 22.3 ± 0.3 nM, 16.3 ± 0.3 nM, 13.8 nM, 37.2 ± 1.1 nM and 18.9 ± 1.4 nM.
